# Measured values as given in patent publication US20220378766A1, “[…] OF A GENE ENCODING AN […] BY TREATING A HUMAN SUBJECT WITH A NITROXIDE” (priority 2021, published 2022).
# Test system: UCP3
# Experiment: Effects of Tempol on gene expression in mice, chip-based microarray of cardiac tissue
# Format: in vivo
# Details: Tempol 5 mg/g of food from 14 to 31 months after birth
# Method: To assess the effects of Tempol on gene expression, Tempol was administered to experimental mice at a dose of 5 mg/g of food from 14 months to 31 months after birth. Mice receiving the same food without the addition of Tempol were used as a negative control. At the age of 31 months, the experimental animals were sacrificed and the hearts were surgically removed. The expression of a broad spectrum of genes in the cardiac tissue was assessed using chip-based microarray technology. Such chips are well known in the art and are widely used to assess gene expression.
smiles,measurement,setting,value
"CC1(C)CC(O)CC(C)(C)N1[O] [Tempol, 4-hydroxy-2,2,6,6-tetramethylpiperidine-1-oxyl]",expression of UCP3,"cardiac tissue, microarray",statistically significant increase in expression
same,Fold change (UCP3 gene expression after Tempol administration),"vs. same food without Tempol, cardiac tissue per text (table title says adipose tissue), P-value 0.00",1.57
